Reference: patent publication US12162858B2, “Quinoline derivatives as inhibitors of AXL/MER RTK and CSF1R” (QURIENT CO., LTD., priority 2018, dated 2024)
Where two headings read alike, the source gives them in different places.

Tests used:
Mer = target: T1, Mer (Homo sapiens, UniProt Q12866); test: LanthaScreen Eu kinase binding assay for Mer
T1 construct: purchased Life Technologies
T1 sequence (Q12866 21-999): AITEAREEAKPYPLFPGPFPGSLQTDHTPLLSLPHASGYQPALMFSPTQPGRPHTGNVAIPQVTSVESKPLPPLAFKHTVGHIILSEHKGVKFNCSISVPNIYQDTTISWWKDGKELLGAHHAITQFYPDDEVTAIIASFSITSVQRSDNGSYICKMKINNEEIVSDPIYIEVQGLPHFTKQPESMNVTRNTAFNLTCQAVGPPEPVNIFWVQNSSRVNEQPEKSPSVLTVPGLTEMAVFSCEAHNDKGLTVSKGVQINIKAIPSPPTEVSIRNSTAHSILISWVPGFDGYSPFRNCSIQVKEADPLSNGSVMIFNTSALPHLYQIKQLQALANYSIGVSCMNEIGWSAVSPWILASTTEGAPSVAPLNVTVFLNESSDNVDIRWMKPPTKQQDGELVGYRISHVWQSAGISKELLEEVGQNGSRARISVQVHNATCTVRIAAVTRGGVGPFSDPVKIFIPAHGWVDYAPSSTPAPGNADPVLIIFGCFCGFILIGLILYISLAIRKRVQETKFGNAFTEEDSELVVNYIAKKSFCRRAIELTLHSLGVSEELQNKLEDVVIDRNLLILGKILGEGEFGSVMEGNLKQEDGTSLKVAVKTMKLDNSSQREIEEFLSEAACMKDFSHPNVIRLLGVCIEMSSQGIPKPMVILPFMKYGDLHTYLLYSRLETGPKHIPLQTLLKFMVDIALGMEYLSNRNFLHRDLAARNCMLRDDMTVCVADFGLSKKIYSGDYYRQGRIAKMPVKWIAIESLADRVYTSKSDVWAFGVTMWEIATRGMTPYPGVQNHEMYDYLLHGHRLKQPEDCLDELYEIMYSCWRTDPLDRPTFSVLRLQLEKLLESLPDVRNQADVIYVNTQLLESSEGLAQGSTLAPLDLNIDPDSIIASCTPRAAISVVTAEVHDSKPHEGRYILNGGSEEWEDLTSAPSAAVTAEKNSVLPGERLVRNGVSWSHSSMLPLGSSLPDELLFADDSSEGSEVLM
Protocol: (§1) LanthaScreen® Eu Kinase Binding assays were conducted at Life Technologies using the manufacturer's specifications for each kinase indicated.
(§2) Briefly, the principle behind this assay is based upon the binding and displacement of an Alexa Fluor 647-labeled tracer to the kinase of interest. Binding of the tracer to the kinase is detected using an EU-labeled anti-tag antibody. Simultaneous binding of both the tracer and antibody to the kinase gives rise to a FRET-signal. Binding of an inhibitor to the kinase competes for binding with the tracer, resulting in a loss of FRET-signal.
(§3) A given compound was diluted in DMSO to make a stock compound solution. The stock compound solution was serially diluted over eight steps in DMSO. Each diluted compound solution in DMSO was diluted in kinase buffer. Afterwards four kinds of working solution were prepared. First, Tracer-Working solution consists of Tracer 236 and Kinase Buffer. Second, Axl, Mer, Tyro3 or Met/anti-GST-AB-Working solution contained one of the kinases Axl, and Mer or anti-GST-AB (=anti glutathione-S-transferase antibody) in Kinase Buffer. Third, anti-GST-AB-Working solution was made with anti-GST-AB and Kinase Buffer. Last, in the DMSO-Working solution DMSO was added to Kinase Buffer to a final concentration to 3%. Each of the four kinds of working solutions were separately added to the assay plate and then incubated for 1 h at room temperature. After incubation, the assay plate was measured with respect to the FRET-Signal with the EnVision (Perkin Elmer) using the program LanthaHTRF-Assay. Data evaluation was done in the Quattro Workflow software. Kd (the equilibrium dissociation constant) values were calculated relative to vehicle (DMSO) control wells.

Axl = target: T2, Axl (Homo sapiens, UniProt P30530); test: LanthaScreen Eu kinase binding assay for Axl
T2 sequence (P30530 26-894): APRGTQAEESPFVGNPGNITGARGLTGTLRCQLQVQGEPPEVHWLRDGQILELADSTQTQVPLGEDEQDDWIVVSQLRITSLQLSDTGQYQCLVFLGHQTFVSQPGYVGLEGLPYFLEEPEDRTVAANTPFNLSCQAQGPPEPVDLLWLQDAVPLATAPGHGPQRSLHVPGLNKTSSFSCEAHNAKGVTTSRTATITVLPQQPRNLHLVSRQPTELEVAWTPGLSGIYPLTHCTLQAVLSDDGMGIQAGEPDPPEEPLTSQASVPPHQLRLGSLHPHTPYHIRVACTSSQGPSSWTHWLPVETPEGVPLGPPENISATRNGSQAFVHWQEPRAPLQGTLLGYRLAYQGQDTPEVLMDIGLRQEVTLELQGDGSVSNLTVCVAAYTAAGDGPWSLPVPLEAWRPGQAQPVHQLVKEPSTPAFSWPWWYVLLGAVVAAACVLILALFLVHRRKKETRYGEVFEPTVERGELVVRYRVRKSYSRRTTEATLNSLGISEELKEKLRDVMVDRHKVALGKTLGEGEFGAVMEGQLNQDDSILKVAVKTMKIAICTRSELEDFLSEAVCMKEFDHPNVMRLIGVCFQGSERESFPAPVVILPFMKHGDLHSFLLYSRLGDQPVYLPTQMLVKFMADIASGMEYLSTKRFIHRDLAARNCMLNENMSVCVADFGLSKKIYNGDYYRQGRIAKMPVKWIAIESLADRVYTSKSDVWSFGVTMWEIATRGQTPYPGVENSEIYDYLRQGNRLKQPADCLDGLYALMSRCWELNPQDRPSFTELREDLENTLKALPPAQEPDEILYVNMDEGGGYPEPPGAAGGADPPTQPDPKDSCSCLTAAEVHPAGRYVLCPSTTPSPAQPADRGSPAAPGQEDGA
Protocol: as §1, §2, §3

[1] = read-out: Mer kinase binding activity (Kd)
[2] = read-out: Axl kinase binding activity (Kd)

Compound | Kd (Mer; [1]) [µM] | Kd (Axl; [2]) [µM] | Kd (Mer; comparison of compounds of present invention (**) vs compounds of WO2016/166250 (*), read-out: Binding activity Mer (Kd)) [µM] | Kd (Axl; comparison of compounds of present invention (**) vs compounds of WO2016/166250 (*), read-out: Binding activity Axl (Kd)) [µM]
COc1cc2nccc(Oc3ccc(NC(=O)c4nn(C5CCCC5)cc4OCC(F)(F)F)nn3)c2cc1OC [Compound 121] | < 0.1 | < 0.1 |  | 
COc1cc2nccc(Oc3ccc(NC(=O)c4nn(C5CC5)cc4OCC4CCC4)nc3)c2cc1OC [Compound 111] | < 0.1 | < 0.1 |  | 
COc1cc2nccc(Oc3ccc(NC(=O)c4nn(C5CCN(C)C5)cc4OCC(F)(F)F)cc3F)c2cc1OC (stereo not shown) [Compound 96] | < 0.1 | < 0.1 |  | 
COc1cc2nccc(Oc3ccc(NC(=O)c4nn(CC(C)O)cc4OCC(F)(F)F)cn3)c2cc1OC (stereo not shown) [Compound 136] | < 0.1 | < 0.1 |  | 
CCCn1cc(OCC(F)F)c(C(=O)Nc2ccc(Oc3ccnc4cc(OC)c(OC)cc34)cn2)n1 [Compound 12] | < 0.1 | < 0.1 |  | 
COc1cc2nccc(Oc3ccc(NC(=O)c4nn(C)cc4OCC(F)(F)F)nn3)c2cc1OC [Compound 102] | < 0.1 | < 0.1 |  | 
COCCOc1cn(C2CC2)nc1C(=O)Nc1ccc(Oc2ccnc3cc(OC)c(OC)cc23)cn1 [Compound 107] | < 0.1 | < 0.1 |  | 
CNCCn1cc(OCC(F)(F)F)c(C(=O)Nc2ccc(Oc3ccnc4cc(OC)c(OC)cc34)cc2F)n1 [Compound 154] | < 0.1 | < 0.1 |  | 
COc1cc2nccc(Oc3ccc(NC(=O)c4nn(CC(C)O)cc4OC(C)C)nc3)c2cc1OC (stereo not shown) [Compound 151] | < 0.1 | < 0.1 |  | 
COc1cc2nccc(Oc3ccc(NC(=O)c4nn(CCOC5CC5)cc4OCC(F)(F)F)nc3)c2cc1OC [Compound 153] | < 0.1 | < 0.1 |  | 
COc1cc2nccc(Oc3ccc(NC(=O)c4nn(CC5COC5)cc4OCC(F)(F)F)nn3)c2cc1OC [Compound 123] | < 0.1 | < 0.1 |  | 
CCn1cc(OCC2CCC2)c(C(=O)Nc2ccc(Oc3ccnc4cc(OC)c(OC)cc34)cn2)n1 [Compound 8] | < 0.1 | < 0.1 |  | 
COc1cc2nccc(Oc3ccc(NC(=O)c4nn(C5CC5)cc4OCC4CNC4)nc3)c2cc1OC [Compound 144] | 0.1 to 0.5 | 0.1 to 0.5 |  | 
CCCn1cc(OCC2COC2)c(C(=O)Nc2ccc(Oc3ccnc4cc(OC)c(OC)cc34)cn2)n1 [Compound 106] | < 0.1 | < 0.1 |  | 
COc1cc2nccc(Oc3ccc(NC(=O)c4nn(CCN(C)C)cc4OCC(F)(F)F)nc3)c2cc1OC [Compound 9] | < 0.1 | < 0.1 |  | 
CCn1cc(OC(C)C)c(C(=O)Nc2ccc(Oc3ccnc4cc(OC)c(OC)cc34)cn2)n1 [Compound 6] | < 0.1 | < 0.1 |  | 
COc1cc2nccc(Oc3ccc(NC(=O)c4nn(CC(C)C)cc4OCC(F)(F)F)nn3)c2cc1OC [Compound 124] | < 0.1 | < 0.1 |  | 
COc1cc2nccc(Oc3ccc(NC(=O)c4nn(C5CC5)cc4OCC(F)F)nn3)c2cc1OC [Compound 162] | < 0.1 | < 0.1 |  | 
COc1cc2nccc(Oc3ccc(NC(=O)c4nn(CCN)cc4OCC(F)(F)F)cn3)c2cc1OC [Compound 135] | ≥ 0.5 | ≥ 0.5 |  | 

Compound | Kd (Mer; [1]) [µM] | Kd (Axl; [2]) [µM] | Kd (Mer; comparison of compounds of present invention (**) vs compounds of WO2016/166250 (*), read-out: Binding activity Mer (Kd)) [µM] | Kd (Axl; comparison of compounds of present invention (**) vs compounds of WO2016/166250 (*), read-out: Binding activity Axl (Kd)) [µM]
CNCCn1cc(OCC(F)(F)F)c(C(=O)Nc2ccc(Oc3ccnc4cc(OC)c(OC)cc34)c(C)c2)n1 [Compound 156] | 0.1 to 0.5 | 0.1 to 0.5 |  | 
COc1cc2nccc(Oc3ccc(NC(=O)c4nn(CCOC5CC5)cc4OCC(F)(F)F)cc3C)c2cc1OC [Compound 117] | < 0.1 | < 0.1 |  | 
CNCCn1cc(OCC(F)(F)F)c(C(=O)Nc2ccc(Oc3ccnc4cc(OC)c(OC)cc34)nc2)n1 [Compound 137] | ≥ 0.5 | ≥ 0.5 |  | 
COc1cc2nccc(Oc3ccc(NC(=O)c4nn(CCOC5CC5)cc4OCC(F)(F)F)cc3)c2cc1OC [Compound 118] | < 0.1 | < 0.1 |  | 
COc1cc2nccc(Oc3ccc(NC(=O)c4nn(C5CCNC5)cc4OCC(F)(F)F)nn3)c2cc1OC (stereo not shown) [Compound 122] | 0.1 to 0.5 | 0.1 to 0.5 |  | 
COc1cc2nccc(Oc3ccc(NC(=O)c4nn(C5CC5)cc4OCC(F)(F)F)nn3)c2cc1OC [Compound 112] | < 0.1 | < 0.1 |  | 
CNCCOc1cn(C2CC2)nc1C(=O)Nc1ccc(Oc2ccnc3cc(OC)c(OC)cc23)nn1 [Compound 160] | ≥ 0.5 | ≥ 0.5 |  | 
COc1cc2nccc(Oc3ccc(NC(=O)c4nn(C5CC5)cc4OCCF)nn3)c2cc1OC [Compound 113] | < 0.1 | < 0.1 |  | 
CNCCn1cc(OCC(F)(F)F)c(C(=O)Nc2ccc(Oc3ccnc4cc(OC)c(OC)cc34)nn2)n1 [Compound 127] | ≥ 0.5 | ≥ 0.5 |  | 
COc1cc2nccc(Oc3ccc(NC(=O)c4nn(C5CCN(C)C5)cc4OCC(F)(F)F)cn3)c2cc1OC (stereo not shown) [Compound 133] | 0.1 to 0.5 | 0.1 to 0.5 |  | 
COc1cc2nccc(Oc3ccc(NC(=O)c4nn(CCOC5CC5)cc4OCC(F)(F)F)nn3)c2cc1OC [Compound 120] | < 0.1 | < 0.1 |  | 
COc1cc2nccc(Oc3ccc(NC(=O)c4nn(C5CCCC5)cc4OCC(F)(F)F)cn3)c2cc1OC [Compound 131] | < 0.1 | < 0.1 |  | 
COc1cc2nccc(Oc3ccc(NC(=O)c4nn(C5CC5)cc4OCC4CCC4)nn3)c2cc1OC [Compound 149] | < 0.1 | < 0.1 |  | 
CCCn1cc(OCCN(C)C)c(C(=O)Nc2ccc(Oc3ccnc4cc(OC)c(OC)cc34)c(F)c2)n1 [Compound 165] | ≥ 0.5 | 0.1 to 0.5 |  | 
COc1cc2nccc(Oc3ccc(NC(=O)c4nn(CCOC5CC5)cc4OCC(F)(F)F)cc3F)c2cc1OC [Compound 116] | < 0.1 | < 0.1 |  | 
COc1cc2nccc(Oc3ccc(NC(=O)c4nn(CC5COC5)cc4OCC(F)(F)F)nc3)c2cc1OC [Compound 92] | < 0.1 | < 0.1 | 0.0013 | 0.0014
COc1cc2nccc(Oc3ccc(NC(=O)c4nn(C5CC5)cc4OC(C)C)nn3)c2cc1OC [Compound 147] | < 0.1 | < 0.1 |  | 
CNCCn1cc(OCC(F)(F)F)c(C(=O)Nc2ccc(Oc3ccnc4cc(OC)c(OC)cc34)c(F)c2)n1 [Compound 155] | 0.1 to 0.5 | < 0.1 |  | 
